24 compounds from patent US20240343704A1, “HALO-SUBSTITUTED AMINO PYRIDINE COMPOUNDS AS INHIBITORS OF THE HAEMATOPOIETIC PROGENITOR KINASE 1 (HPK1)” (priority 2021, published 2024) can be followed below.

In assay [1] the target is T1, Recombinant (1-346) HPK1 (h) (Homo sapiens, UniProt Q92918).
T1 construct: Recombinant (1-346) HPK1 (h) is incubated with 8 mM MOPS pH 7.0
T1 sequence (Q92918 1-346): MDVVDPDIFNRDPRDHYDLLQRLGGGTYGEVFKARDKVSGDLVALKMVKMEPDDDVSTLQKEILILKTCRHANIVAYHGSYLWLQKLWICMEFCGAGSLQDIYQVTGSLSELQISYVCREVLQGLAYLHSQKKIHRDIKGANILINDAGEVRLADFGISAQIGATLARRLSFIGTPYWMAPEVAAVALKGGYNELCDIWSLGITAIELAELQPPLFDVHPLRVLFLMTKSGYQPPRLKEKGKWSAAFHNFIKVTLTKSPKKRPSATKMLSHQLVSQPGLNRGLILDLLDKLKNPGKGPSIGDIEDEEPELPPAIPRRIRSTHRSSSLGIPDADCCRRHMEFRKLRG
Description: HPK1 Human STE Kinase Enzymatic Radiometric Assay. Type of assay: biochemical. Particulars: read-out: HPK1 IC50 nM Range*. As to the method:
A stock solution of 10 mM of test compound is prepared in DMSO. The compound plate was prepared by 3-fold and 9-point serial dilutions. […] The reaction is initiated by The addition of the Mg/ATP mix. After incubation for 40 minutes at RT, the reaction is stopped by the addition of phosphoric acid to a concentration of 0.5%.

The target in another assay is Lck (h) (Homo sapiens, UniProt P06239). As to the kind of experiment: Lck Human  Kinase Enzymatic Radiometric Assay. Type of assay: biochemical. The following applies: read-out: Lck IC50 nM Range*. A digest of the protocol: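 Substrate 33P-incorporation measured by scintillation counting after spotting on P30 filtermat and phosphoric acid washes. Human Lck reacted 40 min at RT in 50 mM Tris pH 7.5 with 10 mM MgAcetate, [gamma-33P]-ATP, 250 uM Cdc2 peptide, 0.1 mM EGTA and 0.1 mM Na3VO4.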
Chain of Lck (h) (P06239 whole entry): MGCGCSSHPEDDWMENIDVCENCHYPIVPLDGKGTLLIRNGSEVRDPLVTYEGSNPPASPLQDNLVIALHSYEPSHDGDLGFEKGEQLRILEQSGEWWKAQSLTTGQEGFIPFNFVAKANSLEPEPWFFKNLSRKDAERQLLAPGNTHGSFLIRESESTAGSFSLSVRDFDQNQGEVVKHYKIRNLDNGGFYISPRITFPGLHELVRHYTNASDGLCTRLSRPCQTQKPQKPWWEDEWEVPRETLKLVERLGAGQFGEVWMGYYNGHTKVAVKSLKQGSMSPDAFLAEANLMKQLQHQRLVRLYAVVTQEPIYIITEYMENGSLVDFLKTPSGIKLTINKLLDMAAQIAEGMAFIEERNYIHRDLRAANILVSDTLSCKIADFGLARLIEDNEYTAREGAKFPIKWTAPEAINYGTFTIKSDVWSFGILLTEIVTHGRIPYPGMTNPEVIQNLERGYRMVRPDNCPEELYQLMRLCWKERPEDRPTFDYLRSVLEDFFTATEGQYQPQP

Structures are written as SMILES. Where a name gives a salt, the structure may show the parent alone.

For the compound `CC(C)[C@H]1CN(c2ccc(-c3cc(-c4ccc5c(c4)CCNC5=O)c(N)nc3F)cc2)CCN1C` [I-50, (S)-6-(2-amino-6-fluoro-5-(4-(3-isopropyl-4-methylpiperazin-1-yl)phenyl)pyridin-3-yl)-3,4-dihydroisoquinolin-1(2H)-one], the figures for the IC50 (in assay [1]; at Lck (h)) were 0.1 to 10 nM and over 1000 nM, respectively.

In the case of `CN1[C@@H]2CC[C@H]1CN(c1ccc(-c3cc(-c4ccc5c(c4)CCNC5=O)c(N)nc3F)cc1)C2` [I-13, 6-(2-amino-6-fluoro-5-(4-((1R,5S)-8-methyl-3,8-diazabicyclo[3.2.1]octan-3-yl)phenyl)pyridin-3-yl)-3,4-dihydroisoquinolin-1(2H)-one], the IC50 in assay [1] was 0.1 to 10 nM; on Lck (h), 101 to 1000 nM.

Turning to `Nc1nc(F)c(-c2ccc(N3CCN4CCOCC4C3)cc2)cc1-c1ccc2c(c1)CCNC2=O` (stereo not drawn) [I-23, 6-(2-amino-6-fluoro-5-(4-(hexahydropyrazino[2,1-c][1,4]oxazin-8(1H)-yl)phenyl)pyridin-3-yl)-3,4-dihydroisoquinolin-1(2H)-one], the IC50 was 0.1 to 10 nM in assay [1] and over 1000 nM at Lck (h).

In the case of `CN1C[C@H]2C[C@@]2(c2ccc(-c3cc(-c4ccc5c(c4)CCNC5=O)c(N)nc3F)cc2)C1` [I-14, 6-(2-amino-6-fluoro-5-(4-((1R,5S)-3-methyl-3-azabicyclo[3.1.0]hexan-1-yl)phenyl)pyridin-3-yl)-3,4-dihydroisoquinolin-1(2H)-one], the IC50 in assay [1] is 0.1 to 10 nM; at Lck (h), over 1000 nM.

As to `Nc1nc(F)c(-c2ccc(C3CCCCN3C3COC3)cc2)cc1-c1ccc2c(c1)CCNC2=O` (stereo not drawn) [I-153, 6-(2-amino-6-fluoro-5-(4-(1-(oxetan-3-yl)piperidin-2-yl)phenyl)pyridin-3-yl)-3,4-dihydroisoquinolin-1(2H)-one], the IC50 in assay [1] is 11 to 100 nM; at Lck (h), over 1000 nM.

As to `Nc1nc(F)c(-c2ccc(OC3CCN(C(=O)CCCC[C@@H]4SC[C@@H]5NC(=O)N[C@@H]54)CC3)cc2)cc1-c1ccc2c(c1)CCNC2=O` [I-348, (3aS,4S,6aR)-4-(5-(4-(4-(6-amino-2-fluoro-5-(1-oxo-1,2,3,4-tetrahydroisoquinolin-6-yl)pyridin-3-yl)phenoxy)piperidin-1-yl)-5-oxopentyl)tetrahydro-1H-thieno[3,4-d]imidazol-2(3H)-one], the IC50 in assay [1] is 0.1 to 10 nM; at Lck (h) it was over 1000 nM.

On to `CC(C)N1CCN(c2ccc(-c3cc(-c4cc5c(c(N(C)C)c4)C(=O)NCC5)c(N)nc3F)cc2)CC1` [I-355, 6-(2-amino-6-fluoro-5-(4-(4-isopropylpiperazin-1-yl)phenyl)pyridin-3-yl)-8-(dimethylamino)-3,4-dihydroisoquinolin-1(2H)-one], for which the results for the IC50 (in assay [1]; at Lck (h)) were 101 to 1000 nM and over 1000 nM, respectively.

As for `C[C@@H]1CN(c2cc(F)c(-c3cc(-c4ccc5c(c4)CCNC5=O)c(N)nc3F)cc2[N+](=O)[O-])C[C@H](C)N1C` [I-250, 6-(2-amino-6-fluoro-5-(2-fluoro-5-nitro-4-((3R,5S)-3,4,5-trimethylpiperazin-1-yl)phenyl)pyridin-3-yl)-3,4-dihydroisoquinolin-1(2H)-one formate], the IC50 is 11 to 100 nM in assay [1] and over 1000 nM on Lck (h).

For the compound `CN(C)C1CCN(c2ccc(-c3cc(-c4ccc5c(c4)CCNC5=O)c(N)nc3F)cc2)CC1` [I-283, 6-(2-amino-5-(4-(4-(dimethylamino)piperidin-1-yl)phenyl)-6-fluoropyridin-3-yl)-3,4-dihydroisoquinolin-1(2H)-one], the figures for the IC50 (in assay [1]; on Lck (h)) were 0.1 to 10 nM and over 1000 nM, respectively.

Take `CC(C)N1CC=C(c2ccc(-c3cc(-c4ccc5c(c4)CCNC5=O)c(N)nc3F)cc2)C1` [I-121, 6-(2-amino-6-fluoro-5-(4-(1-isopropyl-2,5-dihydro-1H-pyrrol-3-yl)phenyl)pyridin-3-yl)-3,4-dihydroisoquinolin-1(2H)-one]: the IC50 in assay [1] is 0.1 to 10 nM; at Lck (h), over 1000 nM.

For the compound `CN1CCN(c2ccc(-c3cc(-c4ccc5c(c4)CCNC5=O)c(N)nc3F)nc2)CC1` [I-27, 6-(6′-amino-2′-fluoro-5-(4methylpiperazin-1-yl)-[2,3′-bipyridin]-5′-yl)-3,4dihydroisoquinolin-1(2H)-one acetate], the IC50 in assay [1] was 0.1 to 10 nM; at Lck (h) it was over 1000 nM.

`CC(C)N1CCN(c2ccc(-c3cc(-c4ccc5c(=O)[nH]c(C(F)(F)F)nc5c4)c(N)nc3F)cc2)CC1` [I-435, 7-(2-amino-6-fluoro-5-(4-(4-isopropylpiperazin-1-yl)phenyl)pyridin-3-yl)-2-(trifluoromethyl)quinazolin-4(3H)-one]: the IC50 in assay [1] was 101 to 1000 nM; on Lck (h), over 1000 nM.

`Nc1nc(F)c(-c2ccc(C3=CCN(CC(F)F)CC3)cc2)cc1-c1ccc2c(c1)CCNC2=O` [I-73, 6-(2-amino-5-(4-(1-(2,2-difluoroethyl)-1,2,3,6-tetrahydropyridin-4-yl)phenyl)-6-fluoropyridin-3-yl)-3,4-dihydroisoquinolin-1(2H)-one]: the IC50 was 0.1 to 10 nM in assay [1] and over 1000 nM at Lck (h).

On to `Nc1nc(F)c(-c2ccc(C3CCN(CC4CC4)CC3)cc2)cc1-c1cc(F)c2c(c1)CCNC2=O` [I-308, 6-(2-amino-5-(4-(1-(cyclopropylmethyl)piperidin-4-yl)phenyl)-6-fluoropyridin-3-yl)-8-fluoro-3,4-dihydroisoquinolin-1(2H)-one], for which the IC50 in assay [1] is 0.1 to 10 nM; on Lck (h), over 1000 nM.

As to `CN(C)Cc1cc(-c2cc(-c3cc4c(cc3F)C(=O)NCC4)c(N)nc2F)ccc1C1CCOCC1` [I-429, 6-(2-amino-5-(3-((dimethylamino)methyl)-4-(tetrahydro-2H-pyran-4-yl)phenyl)-6-fluoropyridin-3-yl)-7-fluoro-3,4-dihydroisoquinolin-1(2H)-one], the values for the IC50 (in assay [1]; at Lck (h)) were 0.1 to 10 nM and over 1000 nM, respectively.

As for `Nc1nc(F)c(-c2ccc(N3CCN(CC(F)F)CC3)cc2)cc1-c1ccc2c(c1)CCNC2=O` [I-21, 6-(2-amino-5-(4-(4-(2,2-difluoroethyl)piperazin-1-yl)phenyl)-6-fluoropyridin-3-yl)-3,4-dihydroisoquinolin-1(2H)-one], the results for the IC50 (in assay [1]; on Lck (h)) were 0.1 to 10 nM and over 1000 nM, respectively.

For the compound `CC(C)N1CCC(Oc2cc(F)c(-c3cc(-c4ccc5c(c4)CCNC5=O)c(N)nc3F)cc2F)CC1` [I-271, 6-(2-amino-5-(2,5-difluoro-4-((1-isopropylpiperidin-4-yl)oxy)phenyl)-6-fluoropyridin-3-yl)-3,4-dihydroisoquinolin-1(2H)-one], the IC50 was 11 to 100 nM in assay [1] and over 1000 nM at Lck (h).

Take `CN1CCN(c2ccc(-c3cc(-c4ccc5c(c4)C(C)(C)NC5=O)c(N)nc3F)cc2)C=N1` [I-37, 5-(2-amino-6-fluoro-5-(4-(1-methyl-5,6-dihydro-1,2,4-triazin-4(1H)-yl)phenyl)pyridin-3-yl)-3,3-dimethylisoindolin-1-one 2,2,2-trifluoroacetate]: the figures for the IC50 (in assay [1]; on Lck (h)) were 11 to 100 nM and over 1000 nM, respectively.

As for `Nc1nc(F)c(-c2ccc(C3COCCN3CC(F)F)cc2)cc1-c1ccc2c(c1)CCNC2=O` (stereo not drawn) [I-133, 6-(2-amino-5-(4-(4-(2,2-difluoroethyl)morpholin-3-yl)phenyl)-6-fluoropyridin-3-yl)-3,4-dihydroisoquinolin-1(2H)-one], the IC50 in assay [1] is 0.1 to 10 nM; at Lck (h), over 1000 nM.

Regarding `Nc1nc(F)c(-c2ccc(N3C[C@H]4COC[C@H]4C3)cc2)cc1-c1ccc2c(c1)CCNC2=O` [I-91, 6-(2-amino-6-fluoro-5-(4-((3aR,6aS)-tetrahydro-1H-furo[3,4-c]pyrrol-5(3H)-yl)phenyl)pyridin-3-yl)-3,4-dihydroisoquinolin-1(2H)-one], the IC50 is 11 to 100 nM in assay [1] and over 1000 nM at Lck (h).

Turning to `CC(C)N1CCN(c2ccc(-c3cc(-c4cc5c(cn4)C(=O)NCC5)c(N)nc3F)cc2)CC1` [I-398, 6-(2-amino-6-fluoro-5-(4-(4-isopropylpiperazin-1-yl)phenyl)pyridin-3-yl)-3,4-dihydro-2,7-naphthyridin-1(2H)-one], the IC50 in assay [1] lay in the range of 0.1 to 10 nM; on Lck (h), 101 to 1000 nM.

`Nc1nc(F)c(-c2ccc(N3CCN(CCCC(F)F)CC3)cc2)cc1-c1cc(F)c2c(c1)CCNC2=O` [I-440, 6-(2-amino-5-(4-(4-(4,4-difluorobutyl)piperazin-1-yl)phenyl)-6-fluoropyridin-3-yl)-8-fluoro-3,4-dihydroisoquinolin-1(2H)-one]: the IC50 in assay [1] is 0.1 to 10 nM; at Lck (h) it was over 1000 nM.

Consider `Cc1[nH]c(=O)c2ccc(-c3cc(-c4ccc(N5CCN(C(C)C)CC5)cc4)c(F)nc3N)cc2c1F` [I-381, 6-(2-amino-6-fluoro-5-(4-(4-isopropylpiperazin-1-yl)phenyl)pyridin-3-yl)-4-fluoro-3-methylisoquinolin-1(2H)-one], for which the IC50 in assay [1] was 101 to 1000 nM; on Lck (h) it was over 1000 nM.

In the case of `CC(C)(C)OC(=O)N1CCC(S(=O)(=O)c2ccc(-c3cc(-c4ccc5c(c4)CCNC5=O)c(N)nc3F)cc2)CC1` [I-83, tert-butyl 4-((4-(6-amino-2-fluoro-5-(1-oxo-1,2,3,4-tetrahydroisoquinolin-6-yl)pyridin-3-yl)phenyl)sulfonyl)piperidine-1-carboxylate], the IC50 in assay [1] is 11 to 100 nM; at Lck (h) it was over 1000 nM.

For orientation: IC50 means the midpoint of a concentration-inhibition curve.
